In PubChem BioAssay (NCI):
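Abbreviation: GI50, concentration required for 50% inhibition of growth. TGI: total growth inhibition.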

Assays:
Assay in all cases: growth of human tumour cells (NCI), 384-well format
A549 NSCLC = system: A549 NSCLC
CCRF-CEM leukemia = system: CCRF-CEM leukemia
COLO 205 colon = system: COLO 205 colon
DU-145 prostate = system: DU-145 prostate
HL-60(TB) leukemia = system: HL-60(TB) leukemia
HS 578T breast = system: HS 578T breast
KM12 colon = system: KM12 colon
M14 melanoma = system: M14 melanoma
MALME-3M melanoma = system: MALME-3M melanoma
MCF7 breast = system: MCF7 breast
MDA-MB-468 breast = system: MDA-MB-468 breast
MOLT-4 leukemia = system: MOLT-4 leukemia
NCI-H23 lung = system: NCI-H23 lung
NCI-H460 NSCLC = system: NCI-H460 NSCLC
NCI-H522 lung = system: NCI-H522 lung
RPMI-8226 leukemia = system: RPMI-8226 leukemia
SK-MEL-5 melanoma = system: SK-MEL-5 melanoma
SN12C renal = system: SN12C renal
SNB-19 CNS = system: SNB-19 CNS
SR leukemia = system: SR leukemia
SW-620 colon = system: SW-620 colon
TK-10 renal = system: TK-10 renal

C[C@@H](CN1CC(=O)NC(=O)C1)N1CC(=O)NC(=O)C1
GI50 (A549 NSCLC): 10.1 µM
GI50 (CCRF-CEM leukemia): 13.7 µM
TGI (CCRF-CEM leukemia): 29.4 µM
GI50 (COLO 205 colon): 10.6 µM
TGI (COLO 205 colon): 27.8 µM
GI50 (DU-145 prostate): 52.4 µM
GI50 (HL-60(TB) leukemia): 4.32 µM
TGI (HL-60(TB) leukemia): 18.4 µM
GI50 (HS 578T breast): 21.2 µM
GI50 (KM12 colon): 91.7 µM
GI50 (M14 melanoma): 55.7 µM
GI50 (MALME-3M melanoma): 34.6 µM
GI50 (MCF7 breast): 77.7 µM
GI50 (MDA-MB-468 breast): 29.1 µM
TGI (MDA-MB-468 breast): 57.9 µM
GI50 (MOLT-4 leukemia): 5.07 µM
TGI (MOLT-4 leukemia): 17.2 µM
GI50 (NCI-H23 lung): 71.8 µM
GI50 (NCI-H460 NSCLC): 19.7 µM
GI50 (NCI-H522 lung): 53.9 µM
GI50 (RPMI-8226 leukemia): 3.65 µM
TGI (RPMI-8226 leukemia): 19.7 µM
GI50 (SK-MEL-5 melanoma): 74.8 µM
GI50 (SN12C renal): 74.4 µM
GI50 (SNB-19 CNS): 96.1 µM
GI50 (SR leukemia): 2150 nM
TGI (SR leukemia): 4.68 µM
GI50 (SW-620 colon): 83.4 µM
GI50 (TK-10 renal): 68 µM
